Patent publication US11555202B2, “Elite event EE-GM5 and methods and kits for identifying such event in biological samples” (priority 2016, dated 2023)

System: soybean plants containing event EE-GM5
Assay: HPPD inhibitor herbicide tolerance field trials on plants with EE-GM5 (maximum phytotoxicity)
Type: in vivo, soybean (Glycine max)
Details: for tolerance of plants with EE-GM5 to the herbicide: field, different locations over 2 years, applied pre-emergence or post-emergence
Protocol: Tolerance of plants comprising EE-GM5 to HPPD inhibitor herbicides was tested at different locations in the field over 2 years. […] All post-emergence treatments were at the V2-V3 stage, with adjuvants crop oil concentrate and ammonium sulfate added to increase herbicide activity.
The “maximum phytotoxicity” as used herein is the highest phytotoxicity rating recorded at any observation during the duration of a trial (with 3 to 4 observations per trial). In existing weed control applications, a normal (1×) dose for isoxaflutole (IFT) in pre- or post-emergence application and for MST in post-emergence application is 105 gr/ha, and a normal (1×) dose for mesotrione in pre-emergence application is 210 gr/ha.
Also, in several field trials across 2 years, soybean plants with event EE-GM5 had good tolerance towards experimental HPPD inhibitor compound 2-methyl-N-(5-methyl-1,3,4-oxadiazol-2-yl)-3-(methylsulfonyl)-4-(trifluoromethyl)benzamide (U.S. Pat. No. 9,101,141) when applied pre-emergence at 400 gr ai/ha or post-emergence at 200 gr ai/ha, respectively (the average maximum phytotoxicity value for each treatment was below 20%). […] All post-emergence treatments were at the V2-V3 stage, with adjuvants crop oil concentrate and ammonium sulfate added to increase herbicide activity.
Also, plants with EE-GM5 when treated post-emergent (V2-V3) with topramezone at 36 g ai/ha (+COC and AMS) in 2 field trials in the US gave an average maximum phytotoxicity of 11%, showing EE-GM5 also confers good tolerance to this HPPD inhibitor.

## CS(=O)(=O)c1ccc(C(=O)C2C(=O)CCCC2=O)c([N+](=O)[O-])c1 [mesotrione, 2-[4-(Methylsulfonyl)-2-nitrobenzoyl]cyclohexane-1,3-dione]
  tolerance of plants with EE-GM5 to the herbicide: commercially relevant tolerance

## Cc1c(C(=O)c2cnn(C)c2O)ccc(S(C)(=O)=O)c1C1=NOCC1 [topramezone, [3-(4,5-dihydro-3-isoxazolyl)-2-methyl-4-(methylsulfonyl)phenyl](5-hydroxy-1-methyl-1H-pyrazol-4-yl)methanone]
post-emergent (V2-V3) at 36 g ai/ha (+COC and AMS), 2 field trials in the US
  average maximum phytotoxicity: 11%

## Cc1nnc(NC(=O)c2ccc(C(F)(F)F)c(S(C)(=O)=O)c2C)o1 [2-methyl-N-(5-methyl-1,3,4-oxadiazol-2-yl)-3-(methylsulfonyl)-4-(trifluoromethyl)benzamide]
Several field trials across 2 years, post-emergence (V2-V3) at 200 gr ai/ha
  average maximum phytotoxicity value: below 20%
Several field trials across 2 years, pre-emergence at 400 gr ai/ha
  average maximum phytotoxicity value: below 20%

## CSc1c(C(F)(F)F)ccc(C(=O)Nc2nnnn2C)c1Cl [2-chloro-3-(methylsulfanyl)-N-(1-methyl-1H-tetrazol-5-yl)-4-(trifluoromethyl)benzamide]
3rd year, EE-GM5 in Thorne background, 150 g/ha post-emergence, 3 field trial locations
  average maximum phytotoxicity: 13.3%
Several field trials across 2 years, post-emergence (V2-V3) at 100-150 gr ai/ha
  average maximum phytotoxicity: 20%

## CS(=O)(=O)c1cc(C(F)(F)F)ccc1C(=O)c1cnoc1C1CC1 [isoxaflutole, (5-cyclopropyl-4-isoxazolyl)[2-(methylsulfonyl)-4-(trifluoromethyl)phenyl]methanone]
3rd year, EE-GM5 in Thorne background, post-emergence V2-V3 stage at 210 g/ha, 4 locations
  average maximum phytotoxicity: 10.9%
3rd year, EE-GM5 in Thorne background, pre-emergence at 410 g/ha, one field trial location
  maximum phytotoxicity: 9%
  tolerance of plants with EE-GM5 to the herbicide: commercially relevant tolerance
